The subject of assay [1] is BCL6 reporter construct (3xBCL6-TK-Luc) in SuDHL4 cells. The assay can be described thus: Cell-based luciferase assay. Put shortly:
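SuDHL4 cells stably carrying a 3×BCL6-site TK-promoter firefly luciferase reporter, seeded at 15,000 cells/well, were dosed over a 10-point range (top 10 uM) and grown two days at 37 °C, 5% CO2. Luminescence then read after adding neolite reagent at room temperature.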

Assay [2] deals with Karpas422 cells. Put plainly: Tumor cell growth inhibition assay. The assay is classed as cell-based. In short, it runs like this:
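Growth inhibition was measured by ATPlite luminescence after six days of culture at 37° C. in 5% CO2. Karpas422 cells were seeded at 2,000 per well in Alpha-MEM plus 10% FBS. Compounds were given as a 10-point concentration series with a highest dose of 5 uM.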

In assay [3] the target is BCL6 BTB domain (Homo sapiens (Human), UniProt P41182). Put plainly: Surface plasmon resonance (SPR) assay. Conditions: BCL6 BTB domain captured on SA chip, single cycle kinetics. The assay is classed as binding.
Setting [4] is: Homo sapiens, SU-DHL-4, 48 h, read-out: Luciferase-Assay EC50, uM), SuDHL4-3xBCL6-TK-Luc cells, two days, high dose 10 uM.
[5] abbreviates: Homo sapiens, KARPAS-422, 144 h, read-out: Tumor Growth Inhibition in Karpas-422 (IC50, uM), Karpas422 cells, six days, ATPlite.

In patent publication US11518764B2, “Substituted heteroaryls as inhibitors of the BCL6 BTB domain protein-protein interaction” (Ontario Institute for Cancer Research (OICR), priority 2018, dated 2022) one finds EC50, IC50 and Kd data, which are given here for four compounds.

Where two headings read alike, the source gives them in different places.

Usually EC50 stands for the concentration needed to bring the measured effect to its halfway point. In general, IC50 refers to the concentration at which inhibition is half-maximal. As a reminder, the Kd is the concentration at which binding is half-saturated. Read a low Kd as tighter binding. On to `Cn1cnc2c(c(-c3cc(C(N)=O)c(O)cn3)cn2CC(=O)Nc2cc(N3CCOCC3)ncc2Cl)c1=O` [Compound I-131, 2-(7-(2-((5-chloro-2-morpholinopyridin-4-yl)amino)-2-oxoethyl)-3-methyl-4-oxo-4,7-dihydro-3H-pyrrolo[2,3-d]pyrimidin-5-yl)-5-hydroxyisonicotinamide], for which, in assay [1] (SuDHL4-3xBCL6-TK-Luc cells, two days, high dose 10 uM, read-out: Luciferase-Assay EC50), the EC50 is over 10 µM. In addition, the IC50 in assay [2] (Karpas422 cells, six days, ATPlite, read-out: Tumor Growth Inhibition in Karpas-422 (IC50)) was over 10 µM. The compound further yielded a Kd in assay [3] of 8000 nM.
On to `Cn1cnc2c(c(-c3cc(F)c(O)c(C(N)=O)c3)cn2CC(=O)Nc2cc(N3CC4COCC4C3)ncc2Cl)c1=O` (stereo not drawn) [Compound I-275], for which the EC50 in assay [1] (setting [4]) is 0.209 µM. In assay [2] (setting [5]), the IC50 was determined as 0.137 µM. The compound further showed a Kd in assay [3] of 4.76 nM.
The corresponding values for `C[C@H]1CN(CC(F)F)CCN1c1cc(NC(=O)Cn2cc(-c3cc(C(N)=O)c(O)c(F)c3F)c3c(=O)n(C)cnc32)c(Cl)c(F)n1` [Compound I-469] are 0.141 µM, 0.153 µM and 35.5 nM.
The corresponding values for `C[C@H]1COCCN1c1cc(NC(=O)Cn2cc(-c3cc(Cl)c(O)c(C(N)=O)c3)c3c(=O)n(C)ccc32)c(Cl)cn1` [Compound I-138] are 1.74 µM, 1.72 µM and 178 nM.
